± gives the expanded uncertainty stated by the source.
How the values were obtained:
[1] = Liquid; for mass density: 298.15 K, 101.33 kPa, vibrating tube; for Normal boiling temperature: Ebulliometric method (Recirculating still)
[2] = refractive index (Na D-line) (dimensionless); conditions: 303.15 K; 101.33 kPa; Liquid; Abbe refractometer
[3] = excess molar enthalpy (molar enthalpy of mixing); xn = mol fraction of the nth substance listed; conditions: 101.3 kPa, Liquid, Calvet calorimetry
[4] = xn = mol fraction of the nth substance listed; conditions: 101.3 kPa, Liquid

CCOC(C)=O [ethyl acetate]
Conditions	Normal boiling temperature [°C]	mass density [kg/m3]	refractive index
[1]	77.10 ± 0.11	894.44 ± 0.46	–
[2]	–	–	1.3675 ± 0.0005

CCCC(=O)OCC [ethyl butanoate]
Conditions	Normal boiling temperature [°C]	mass density [kg/m3]	refractive index
[1]	121.02 ± 0.13	873.94 ± 0.9	–
[2]	–	–	1.388 ± 0.0006

CCOC=O [ethyl methanoate]
Conditions	Normal boiling temperature [°C]	mass density [kg/m3]	refractive index
[1]	54.14 ± 0.13	914.53 ± 0.94	–
[2]	–	–	1.355 ± 0.0006

CCOC(=O)CC [ethyl propanoate]
Conditions	Normal boiling temperature [°C]	mass density [kg/m3]	refractive index
[1]	98.76 ± 0.11	883.95 ± 0.46	–
[2]	–	–	1.3791 ± 0.0005

CCOC(=O)CC [ethyl propanoate] + CC(C)(C)O
Conditions	excess molar enthalpy [kJ/mol]	excess molar volume [m3/mol]
[3], 299.15 K, x1 = 0.0555	0.335 ± 0.012	–
[3], 299.15 K, x1 = 0.1332	0.767 ± 0.014	–
[3], 299.15 K, x1 = 0.2151	1.13 ± 0.017	–
[3], 299.15 K, x1 = 0.2979	1.45 ± 0.019	–
[3], 299.15 K, x1 = 0.3767	1.66 ± 0.021	–
[3], 299.15 K, x1 = 0.4164	1.74 ± 0.022	–
[3], 299.15 K, x1 = 0.4497	1.79 ± 0.022	–
[3], 299.15 K, x1 = 0.477	1.81 ± 0.023	–
[3], 299.15 K, x1 = 0.5513	1.8 ± 0.022	–
[3], 299.15 K, x1 = 0.6351	1.72 ± 0.022	–
[3], 299.15 K, x1 = 0.73	1.48 ± 0.02	–
[3], 299.15 K, x1 = 0.8294	1.08 ± 0.017	–
[3], 299.15 K, x1 = 0.9242	0.551 ± 0.013	–
[3], 318.15 K, x1 = 0.051	0.293 ± 0.011	–
[3], 318.15 K, x1 = 0.1094	0.585 ± 0.013	–
[3], 318.15 K, x1 = 0.1681	0.875 ± 0.015	–
[3], 318.15 K, x1 = 0.2276	1.13 ± 0.017	–
[3], 318.15 K, x1 = 0.2892	1.37 ± 0.018	–
[3], 318.15 K, x1 = 0.3477	1.54 ± 0.02	–
[3], 318.15 K, x1 = 0.4028	1.65 ± 0.021	–
[3], 318.15 K, x1 = 0.4347	1.71 ± 0.022	–
[3], 318.15 K, x1 = 0.4528	1.74 ± 0.022	–
[3], 318.15 K, x1 = 0.4786	1.77 ± 0.022	–
[3], 318.15 K, x1 = 0.5297	1.78 ± 0.022	–
[3], 318.15 K, x1 = 0.5872	1.75 ± 0.022	–
[3], 318.15 K, x1 = 0.6499	1.67 ± 0.021	–
[3], 318.15 K, x1 = 0.7164	1.51 ± 0.02	–
[3], 318.15 K, x1 = 0.7897	1.26 ± 0.018	–
[3], 318.15 K, x1 = 0.8641	0.908 ± 0.016	–
[3], 318.15 K, x1 = 0.9381	0.479 ± 0.013	–
[4], 303.15 K, x1 = 0.0345	–	7.6e-07 ± 6e-08
[4], 303.15 K, x1 = 0.0905	–	2.12e-06 ± 7e-08
[4], 303.15 K, x1 = 0.1495	–	3.31e-06 ± 7e-08
[4], 303.15 K, x1 = 0.1943	–	4.02e-06 ± 7e-08
[4], 303.15 K, x1 = 0.2497	–	4.82e-06 ± 8e-08
[4], 303.15 K, x1 = 0.2987	–	5.39e-06 ± 8e-08
[4], 303.15 K, x1 = 0.3496	–	5.77e-06 ± 9e-08
[4], 303.15 K, x1 = 0.3997	–	6.19e-06 ± 9e-08
[4], 303.15 K, x1 = 0.4466	–	6.39e-06 ± 9e-08
[4], 303.15 K, x1 = 0.4486	–	6.45e-06 ± 9e-08
[4], 303.15 K, x1 = 0.4998	–	6.48e-06 ± 9e-08
[4], 303.15 K, x1 = 0.5006	–	6.53e-06 ± 9e-08
[4], 303.15 K, x1 = 0.5163	–	6.52e-06 ± 9e-08
[4], 303.15 K, x1 = 0.5188	–	6.51e-06 ± 9e-08
[4], 303.15 K, x1 = 0.5569	–	6.47e-06 ± 9e-08
[4], 303.15 K, x1 = 0.5646	–	6.42e-06 ± 9e-08
[4], 303.15 K, x1 = 0.5964	–	6.31e-06 ± 9e-08
[4], 303.15 K, x1 = 0.6368	–	6.07e-06 ± 9e-08
[4], 303.15 K, x1 = 0.6458	–	6e-06 ± 9e-08
[4], 303.15 K, x1 = 0.7044	–	5.45e-06 ± 8e-08
[4], 303.15 K, x1 = 0.7533	–	4.87e-06 ± 8e-08
[4], 303.15 K, x1 = 0.8103	–	4.04e-06 ± 8e-08
[4], 303.15 K, x1 = 0.858	–	3.25e-06 ± 7e-08
[4], 303.15 K, x1 = 0.9096	–	2.24e-06 ± 7e-08
[4], 303.15 K, x1 = 0.9432	–	1.54e-06 ± 6e-08
[4], 318.15 K, x1 = 0.0694	–	1.85e-06 ± 6e-08
[4], 318.15 K, x1 = 0.1223	–	2.99e-06 ± 7e-08
[4], 318.15 K, x1 = 0.1759	–	3.87e-06 ± 7e-08
[4], 318.15 K, x1 = 0.2144	–	4.51e-06 ± 8e-08
[4], 318.15 K, x1 = 0.2746	–	5.29e-06 ± 8e-08
[4], 318.15 K, x1 = 0.3188	–	5.79e-06 ± 9e-08
[4], 318.15 K, x1 = 0.3648	–	6.16e-06 ± 9e-08
[4], 318.15 K, x1 = 0.4303	–	6.43e-06 ± 9e-08
[4], 318.15 K, x1 = 0.4669	–	6.5e-06 ± 9e-08
[4], 318.15 K, x1 = 0.5429	–	6.53e-06 ± 9e-08
[4], 318.15 K, x1 = 0.596	–	6.43e-06 ± 9e-08
[4], 318.15 K, x1 = 0.6662	–	6.05e-06 ± 9e-08
[4], 318.15 K, x1 = 0.7319	–	5.43e-06 ± 8e-08
[4], 318.15 K, x1 = 0.8088	–	4.45e-06 ± 8e-08
[4], 318.15 K, x1 = 0.8557	–	3.75e-06 ± 8e-08
[4], 318.15 K, x1 = 0.9183	–	2.28e-06 ± 7e-08

Reference: the NIST ThermoML archive (doi:10.1021/je0202073)
